Data set [1] concerns metastatic PC3pip tumor (intracardiac GFP-PC3pip cells). Kind of data set: Metastatic PC3pip survival study. As to conditions: 1910 nmol/kg every 4 days, five doses, 90 days, n = 8. The data set is classed as in vivo, mouse. The protocol:
Male athymic nude mice were injected into the left ventricle of the heart with 1 × 10^5 GFP labeled PC3pip cells to generate bone metastasis. One week later, mice received 1910 nmol/kg of PSMA-1-VcMMAE or PBS every 4 days with a total of five doses and the progression of disease was monitored by GFP imaging. Eight mice were used in each group.

The subject of data set [2] is heterotopic PC3pip tumors. Kind of data set: Heterotopic PC3pip tumor survival study. The class given is in vivo. Here is the method:
Male athymic nude mice were implanted subcutaneously with 1 × 10^6 of PC3pip cells 100 μL of matrigel. When tumor size reached approximately 100 mm^3 (tumor volume = Length × width^2/2), mice received drugs through tail vein injection every 4 days with a total of five doses. Mice were treated every 4 days with a total of five doses. Animals were weighed and tumor size measured every other day for 90 days. Cures were defined as no tumor present at end of the 90-day study. When tumors became too large or animals were moribund they were euthanized. Five mice were used in each group.

Data set [3] relates to heterotopic C4-2 tumors. In words: Heterotopic C4-2 tumor study. The data set is classed as in vivo, mouse. As to conditions: 1910 nmol/kg every 4 days, five doses, 7 animals. The source says:
To show versatility of the antitumor activity of PSMA-1-VcMMAE, we also tested it in mice bearing heterotopic C4-2 tumors, which are androgen-independent prostate cancer cells endogenously expressing PSMA. […]
(§1) drugs through tail vein inject every 4 days with total of 5 injections as indicated by the red arrows.
[…] Values are mean ± SD of 5 animals. The plots stopped when animals died during the experiments since values are represent as mean ± SD of 5 animals.
(§2) (nmol/kg) Tumor Growth (nmol/kg) Therapeutic Index *
(§3) *: Therapeutic index is defined by MTD/effective dose.
PC3flu tumors. Treatment were scheduled every 4 days with a total of five doses as indicated by the […]
red arrow. […] For tumor growth curves and body weight curves, values are mean ± SD of 5 animals. The plots stopped when animals died during the experiments since values are represent as mean ± SD of 5 animals. (A) Tumor growth curves of mice treated with 955 nmol/kg of PSMA-1-VcMMAE. (B) Comparison of the potency of PSMA-1-VcMMAE to treat PC3pip (solid line) and PC3flu tumors (dashed line) at the dose of 955 nmol/kg. (☀, PC3pip treated versus PC3pip PBS, p = 0.0005; ★, PC3pip treated versus PC3flu PBS, p = 0.0242; ♣, PC3pip treated versus PC3flu treated, p = 0.0493). (C) Body weight changes of mice treated with 955 nmol/kg of PSMA-1-VcMMAE.
Figure 9. PSMA-1-VcMMAE was effective in heterotopic C4-2 tumor model. […]

Data set [4] has as its target T1, human liver cathepsin B (Homo sapiens, UniProt P07858).
T1 construct: purchased Anthens Research and Technology, Anthens, AL, USA (so in the source); host or cells: human liver (tissue-derived enzyme)
In words: Enzymatic cleavage by cathepsin B, HPLC analysis. The data set is classed as in vitro ADME. As to conditions: activated human liver cathepsin B, 2 μM conjugate, 37 °C, triplicate. Here is the method: (§4) Cathepsin is a prevalent protease that PSMA internalized ligands will encounter as they enter into late endosomes/lysosomes. To investigate if PSMA-targeted drug conjugates were cleavable by cathepsin B, the two conjugates were incubated with or without cathepsin protease and chromatographed by high performance liquid chromatography (HPLC).
(§5) At different time intervals, 40 μL of the solution was taken out into tubes loaded with 1 μL of 1 mM E64 protease inhibitor. […] Studies were performed in triplicate.

A short description of data set [5]: In vitro cytotoxicity assay (CCK-8), PC3flu. The class given is cell-based, human. As to conditions: human, PC3flu cells. Here is the method:
(§6) Cells (1000/well) were seeded in 96-well culture plates the day before treatment.

Data set [6] in a line: In vitro cytotoxicity assay (CCK-8), PC3pip. The data set is classed as cell-based, human. As to conditions: human; for EC50 at 72 h: PC3pip cells. Here is the method:
as §6

Data set [7] can be described thus: Stability on incubation in PBS (without cathepsin), HPLC. The data set is classed as in vitro ADME. As to conditions: incubation with PBS without cathepsin, triplicate. Here is the method: as §4, §5
The subject of data set [8] is heterotopic PC3flu tumors. Kind of data set: Heterotopic PC3flu versus PC3pip tumor study. The class given is in vivo, mouse. As to conditions: 955 nmol/kg every 4 days, five doses, n = 5, p = 0.0493. The protocol:
Male athymic nude mice were implanted subcutaneously with 1 × 10^6 of PC3pip cells 100 μL of matrigel. When tumor size reached approximately 100 mm^3 (tumor volume = Length × width^2/2), mice received drugs through tail vein injection every 4 days with a total of five doses. Mice were treated every 4 days with a total of five doses. Animals were weighed and tumor size measured every other day for 90 days. Cures were defined as no tumor present at end of the 90-day study. When tumors became too large or animals were moribund they were euthanized. Five mice were used in each group. […]
as §1
Each group had 5 mice. Values are mean ± SD of 5 animals. The plots stopped when animals died during the experiments since values are represent as mean ± SD of 5 animals.
as §2, §3
PC3flu tumors. Treatment were scheduled every 4 days with a total of five doses as indicated by the red arrow. Each group had 5 mice. For tumor growth curves and body weight curves, values are mean ± SD of 5 animals. The plots stopped when animals died during the experiments since values are represent as mean ± SD of 5 animals. (A) Tumor growth curves of mice treated with 955 nmol/kg of PSMA-1-VcMMAE. […]

[9] abbreviates: 3820 nmol/kg i.v. every 4 days, five doses, n = 5.

“Also recorded” adds a separate entry of the source. *1 amine or outer side, *2 acyl side, *3 side chain or, on linkers, in order; H or OH if unused. Where a SMILES comes first, the peptide text is derived from it. Bridges are numbered along the chain shown (N, C = ends). Roman numbers before positions name the chains, in order. [ ]: non-standard residue; d: D form. The star is where a group is joined. Hexanoyl(6-succinimido-3yl) = O=C1CC([*:1])C(=O)N1CCCCCC(=O)[*:2]; Dolaproine = CO[C@@H]([C@@H]1CCCN1)[C@@H](C)C(=O)O; Dil = CC[C@H](C)[C@H](NC)[C@@H](CC(=O)O)OC; γGlu = O=C(O)[C@H](CCC(=O)[*:2])N[*:1]; PABC = O=C(OCc1ccc(N[*:1])cc1)[*:2]; X2 = C[C@@H](N*)[C@@H](O)c1ccccc1; X1 = O=C(C1CCC(CN[*:1])CC1)[*:2]; Cit = NC(=O)NCCC[C@H](N)C(=O)O; NMeV = CN[C@H](C(=O)O)C(C)C; CO = O=C([*:1])[*:2]; Ahx = NCCCCCC(=O)O

One may read the EC50 as the midpoint of the concentration-response curve. In the case of `CC[C@H](C)[C@@H]([C@@H](CC(=O)N1CCC[C@H]1[C@H](OC)[C@@H](C)C(=O)N[C@H](C)[C@@H](O)c1ccccc1)OC)N(C)C(=O)[C@@H](NC(=O)[C@H](C(C)C)N(C)C(=O)OCc1ccc(NC(=O)[C@H](CCCNC(N)=O)NC(=O)[C@@H](NC(=O)CCCCCN2C(=O)CC(SC[C@H](NC(=O)[C@@H](CCC(=O)O)NC(=O)[C@@H](CCC(=O)O)NC(=O)[C@@H](CCC(=O)O)NC(=O)CCCCCNC(=O)C3CCC(CNC(=O)CC[C@H](NC(=O)N[C@@H](CCC(=O)O)C(=O)O)C(=O)O)CC3)C(=O)NCCCCCC(=O)N[C@@H](CCCCN)C(N)=O)C2=O)C(C)C)cc1)C(C)C` (stereo partly shown) [PSMA-1-VcMMAE] (I: {Glu-CO-γGlu}-[X1][Ahx][dE][dE][dE]C[Ahx]K-NH2 / II: V[Cit][PABC][NMeV]V[Dil][Dolaproine]-X2; linker I:6-II:N via Hexanoyl(6-succinimido-3yl)), in data set [1], the “cures, metastatic PC3pip” value is listed as “six out of eight”. Further, the “cure rate, metastatic PC3pip” value in data set [1] (started 1 week after cardiac injection) is 75%. In addition, the “tumor growth (in words), 191 nmol/kg” value in data set [2] (191 nmol/kg i.v. every 4 days, five doses, n = 5) was “significant tumor inhibition”. In addition, the “cures, 955 nmol/kg” value in data set [2] (955 nmol/kg i.v. every 4 days, five doses, n = 5) is recorded as 2/5. Besides, the “histology (H&E) of major organs (in words)” value in data set [2] (3820 nmol/kg every 4 days, five injections, day 21) was “no noticeable histological changes; also recorded: no histological damage in salivary gland”. The “cure rate, 3820 nmol/kg” value in data set [2] (setting [9]) worked out at 60%. For the same compound, the “cures (tumor-free mice at 90 days), 3820 nmol/kg” value in data set [2] (setting [9]) was “three out of five”. The “survival over 90-day experimental time, 3820 nmol/kg” value in data set [2] (setting [9]) is given as “all five mice survived”. The compound further showed a therapeutic index in data set [2] (MTD/effective dose) of 20. Moreover, the “lowest dose to effectively inhibit tumor growth” value in data set [2] (i.v. every 4 days, five doses, tumor growth inhibited for 30 days, n = 5) was determined as 382 nmol/kg. Besides, the “body weight (in words)” value in data set [2] (up to 3820 nmol/kg i.v. every 4 days, five doses) is recorded as “No body weight loss”. For the same compound, the “cures, C4-2 tumors” value in data set [3] is 2 / 7. For the same compound, in data set [4], the “cleavage by cathepsin B (in words)” value was “release of free MMAE”. The EC50 at 72 h is 261 ± 5.6 nM in data set [5] (72 h, CCK-8, in the presence of 10 μM of PSMA-1, read-out: EC50, cytotoxicity to PC3flu cells + PSMA-1); 385 ± 5.3 nM in data set [5] (72 h, CCK-8, in the presence of protease inhibitor E64 (50 μM given for the Cy5.5 conjugates), read-out: EC50, cytotoxicity to PC3flu cells + E64); 222 ± 2.8 nM in data set [5] (72 h incubation, CCK-8, mean ± SD, read-out: EC50, cytotoxicity to PC3flu cells); 241 ± 8.6 nM in data set [6] (72 h, CCK-8, in the presence of 10 μM of PSMA-1, read-out: EC50, cytotoxicity to PC3pip cells + PSMA-1); 31.1 ± 2.11 nM in data set [6] (72 h, CCK-8, in the presence of protease inhibitor E64 (50 μM given for the Cy5.5 conjugates), read-out: EC50, cytotoxicity to PC3pip cells + E64); 4.64 ± 0.83 nM in data set [6] (72 h incubation, CCK-8, mean ± SD, read-out: EC50, cytotoxicity to PC3pip cells). In addition, the selectivity ratio at 72 h in data set [6] (PC3pip and PC3flu cells, more potent for PC3pip than PC3flu, read-out: selectivity, differential cytotoxicity ratio between PC3pip and PC3flu cells) is 48. Also, the “stability in PBS (in words)” value in data set [7] is reported as “stable”. Moreover, the “inhibition of PC3pip versus PC3flu tumor growth (in words)” value in data set [8] was “significantly more effective at inhibiting PSMA-positive PC3pip tumor growth than PSMA-negative PC3flu tumor growth”.

The record behind these values is publication PMC7865627, “Small Molecule-Based Prodrug Targeting Prostate Specific Membrane Antigen for the Treatment of Prostate Cancer” (Cancers, 2021).
